test system: Escherichia coli; test: Antibacterial activity against Escherichia coli at 20 ug/6 mm disk; assay type: functional

Point of comparison: `CC(C)=CCC/C(C)=C/CC/C(C)=C/CC/C(C)=C/C(=O)NCCc1cn(CCCN)c[n+]1C.[Cl-]` [STELLETTAZOLE C], “inhibition zone (IZ)” value 6.2 mm. Against it:
- CC(C)=CCC/C(C)=C/CC/C(C)=C/CC(=O)NC[C@@H]1CC[N+]2(C)CCCC[C@H]12.[Cl-] (stereo partly drawn) [STELLETTAMIDE C] — higher, 10.5 mm
- CC(C)=CCC/C(C)=C/CC/C(C)=C/CC/C(C)=C/C(=O)NCCc1cn(CCCNC(=N)N)c[n+]1C.[Cl-] [STELLETTAZOLE B] — lower, 6.1 mm
